Assay results reported in US8329745B2, “Small molecule inhibitors of ghrelin O-acyltransferase” (Board of Regents, The University of Texas System, priority 2008, dated 2012).
Where a SMILES comes first, the peptide text is derived from it. [ ]: non-standard residue; d: D form. The star is where a group is joined. Octanoyl = CCCCCCCC(=O)*; Dap = NC[C@H](N)C(=O)O

Key:
mouse GOAT = target: T1, mouse GOAT (Mus musculus, UniProt P0C7A3); assay: In vitro octanoylation assay: [3H]octanoyl transfer from octanoyl CoA to proghrelin-His8 by membranes of Sf9 cells expressing GOAT; format: biochemical; conditions: for GOAT inhibitory activity/potency compared with BK1114 / GOAT inhibitory activity compared with PH1147: concentration not given; for IC50 / dose response inhibition of GOAT activity in vitro / inhibition of GOAT activity at high concentration: Sf9 membranes; for IC50 / inhibition of GOAT activity at high concentration: mouse GOAT; for IC50: read-out: IC50 for GOAT inhibition in vitro; for dose response inhibition of GOAT activity in vitro: mouse His10-GOAT, 3% DMSO; for GOAT inhibition in vitro compared with PH1147: 100 μM concentration; for inhibition of GOAT activity (qualitative): all concentrations tested / concentration not stated; for inhibition of GOAT activity at high concentration: 500 μM
T1 construct: made in house; host or cells: Sf9 insect cells (baculovirus); crude membrane fraction used
T1 sequence (P0C7A3 1-435): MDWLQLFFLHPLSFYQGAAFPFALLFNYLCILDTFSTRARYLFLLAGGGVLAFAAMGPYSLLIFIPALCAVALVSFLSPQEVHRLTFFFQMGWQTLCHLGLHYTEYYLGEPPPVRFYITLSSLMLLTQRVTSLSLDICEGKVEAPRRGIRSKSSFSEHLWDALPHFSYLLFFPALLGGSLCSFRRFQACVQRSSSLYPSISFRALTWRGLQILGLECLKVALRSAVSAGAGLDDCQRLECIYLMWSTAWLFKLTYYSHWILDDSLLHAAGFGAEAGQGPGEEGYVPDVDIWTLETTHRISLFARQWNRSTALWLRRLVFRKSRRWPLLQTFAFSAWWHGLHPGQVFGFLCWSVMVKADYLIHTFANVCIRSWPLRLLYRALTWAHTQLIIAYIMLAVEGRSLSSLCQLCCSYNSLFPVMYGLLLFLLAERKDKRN
Experimental: The assay we used is described in copending U.S. Ser No. 12/167,917, filed: Jul. 3, 2008. For baculoviral infection of insect cells, mouse GOAT cDNA was inserted into pFastBac HT-A (His10-tag) (Invitrogen), and baculovirus was generated. Sf9 insect cells were cultured, set up on day 0 at a density of 5×10^5 cells/ml, and infected on day 1 with baculovirus encoding His 10-GOAT at a density of 1×10^6 cells/ml. Cells were harvested 48 h post-infection and washed once with phosphate-buffered saline.
Each pellet of Sf9 cells (obtained from 1 liter of cell culture) was disrupted with a Dounce homogenizer (40 strokes) on ice in 50 ml of buffer containing 50 mM Tris-Cl (pH 7.0), 150 mM NaCl, 1 mM sodium EDTA, 1 mM dithiothreitol, 100 μM bis(4-nitrophenyl) phosphate, 2.5 μg/ml aprotinin, 20 μg/ml phenylmethylsulfonyl fluoride, 10 μg/ml leupeptin, and 10 μg/ml pepstatin A. After an initial centrifugation at 3,000 g for 5 min at 4° C., the supernatant was further centrifuged at 100,000 g for 30 min at 4° C. to obtain a membrane fraction, which was stored at −80° C. until the time of assay. Just prior to assay, the membranes were suspended in 50 mM HEPES-NaOH (pH 7.0) and then passed through a 22-gauge needle 10 times. After centrifugation at 1,000 g for 1 min to remove aggregated materials, the supernatant (hereafter referred as membranes) was used for assays.
Unless otherwise stated, the standard assay mixture contained 50 mM HEPES-NaOH (pH 7.0), 50 μM palmitoyl CoA or myristyl ether CoA, 50 μg membrane protein, 5 μg recombinant wild type or mutant versions of proghrelin-His8 and 1 μM [^3H]octanoyl CoA (11 dpm/fmol) in a final volume of 50 μl. […] The columns were washed at room temperature with 1 ml of buffer A followed by 3 ml of buffer A containing 25 mM imidazole. The His-tagged proghrelin was then eluted with 1 ml of buffer A containing 250 mM imidazole. Radioactivity present in the 250 mM-imidazole eluate was quantified by liquid scintillation counting.
Compounds PH1147-1152 were screened for GOAT inhibition in vitro using membrane fractions prepared from Sf9 insect cells infected with baculovirus encoding mouse GOAT. The assay (described in U.S. Ser. No. 12/167,917) measures the extent of specific acyl transfer from tritiated octanoyl CoA to recombinant His-tagged proghrelin. […] PH1147 was the simplest molecule in the set and lacked motifs present in the more complex analogs intended to be Ser2 and/or Phe4 mimetics.
(§1) Inhibition of GOAT activity by [Dap^3]octanoyl-ghrelin (1-5)-NH2 peptide and BK1114. Membranes from Sf9 cells infected with baculovirus encoding mouse His10-GOAT were prepared as previously described (Yang J, Zhao T J, Goldstein J L, Brown M S. 2008 PNAS, 105: 10750-10755). Each 50-μl reaction mixture contained 50 μg of membrane protein, 5 μg of proghrelin-His8, 50 μM palmitoyl CoA, 1 μM http[^3H]octanoyl CoA (11 dpm/fmol), and the experimental concentrations of peptide or compound in a final concentration of 3% (vol/vol) DMSO. Control values were established which represent the amount of [3H]octanoyl proghrelin formed in the absence of compound.
as §1, with “the synthetic compounds, BK1114, BK1176, BK1177” for “[Dap^3]octanoyl-ghrelin (1-5)-NH2 peptide”, “BK1183.” for “BK1114.”, “et al., 2008, supra).” for “J, Zhao T J, Goldstein J L, Brown M S. 2008 PNAS, 105: 10750-10755).”, “[^3H]octanoyl” for “http[^3H]octanoyl”, “the” for “peptide or”

GOAT = target: T2, GOAT (Mus musculus, UniProt P0C7A3); assay: Inhibition of GOAT activity in intact INS-1 cells co-expressing preproghrelin and GOAT (anti-ghrelin immunoblot); format: cell-based, Rat; conditions: 5 to 10 to 20 to 50 uM inhibitor, 24 h
T2 construct: expressed in transfected cells; host or cells: rat INS-1 cells stably co-expressing preproghrelin (pCMV-preproghrelin) and GOAT-T7 (pEF-GOAT-T7)
T2 sequence (P0C7A3 1-435): T1 sequence (P0C7A3 1-435)
Experimental: A stably transfected INS-1 cell line co-expressing preproghrelin and GOAT was established as described below. On day 0, cells were set up at a density of 1.5×10^6/100-mm dish in medium A (RPMI-1640 medium supplemented with 10 mM HEPES, 50 μM β-mercaptoethanol, 100 U/ml penicillin, and 100 μg/ml streptomycin) containing 10% (v/v) FCS. On day 2, fresh medium was added. On day 4, the cells received a direct addition of the indicated concentration of BK1114 delivered in DMSO. The final concentration of DMSO in each dish was 0.5%. 24 h after treatment, two dishes of cells from each condition were harvested and pooled, after which peptides were extracted from the cells, fractioned on reverse-phase chromatography, and subjected to immunoblot analysis with a 1:1000 dilution of rabbit anti-ghrelin antibody as previously described (Yang J, Brown M S, Liang G, Grishin N V, Goldstein J L (2008) Identification of the acyltransferase that octanoylates ghrelin, an appetite-stimulating peptide hormone. Cell 132:387-39). Films were exposed for 1 min.
Stably transfected cell line co-expressing preproghrelin and GOAT. Rat INS-1 cells were grown in monolayer at 37° C. in 8.8% CO2 as previously described (Id.). […] Expression of proghrelin and ghrelin was assessed by immunoblot analysis. […] Expression of GOAT-T7 was assessed by immunoblot analysis.

For `CCCCCCCC(=O)NC[C@H](NC(=O)OCc1ccccc1)C(=O)OC` [LN1111622], the “GOAT inhibitory activity/potency compared with BK1114” value (mouse GOAT) was “does not perform as well as BK1114”.

In the case of `CCCCCCCC(C)(O)/C=C/[C@H](NC(=O)OCc1ccccc1)C(=O)N[C@@H](Cc1ccccc1)C(=O)N[C@@H](CC(C)C)C(N)=O` (stereo partly shown) [BK1129], the “GOAT inhibitory activity/potency compared with BK1114” value (mouse GOAT) is reported as “Neither was as effective as BK1114”.

For `CCCCCCCC(=O)NC[C@H](NC(=O)[C@H](CO)NC(=O)CN)C(=O)N[C@@H](Cc1ccccc1)C(=O)N[C@@H](CC(C)C)C(N)=O` [Structure 2, [Dap^3]octanoyl-ghrelin (1-5)-NH2, reference compound] (H-GS[Dap](Octanoyl)FL-NH2), the IC50 (mouse GOAT) was roughly 1.5 µM and the “dose response inhibition of GOAT activity in vitro” value (mouse GOAT) was “dose response inhibition”.

With `CCCCCCCC(C)(O)C/C=C(/NC(=O)OCc1ccccc1)C(=O)NC(C)C` (stereo not shown) [PH1176b] the “GOAT inhibitory activity/potency compared with BK1114” value (mouse GOAT) was “do not improve activity”.

For `CCCCCCCC(C)(O)/C=C/[C@@H](NC(=O)OCc1ccccc1)C(=O)OC` (stereo partly shown) [BK1149], the “GOAT inhibitory activity/potency compared with BK1114” value (mouse GOAT) was “comparable to BK1114”.

For `CCCCCCCC(C)(O)/C=C/C(NC(=O)OCc1ccccc1)C(=O)OC` (stereo not shown) [BK1114], the “GOAT inhibition in vitro compared with PH1147” value (mouse GOAT) was “roughly twice as efficacious as PH1147”, the “dose response inhibition of GOAT activity in vitro” value (mouse GOAT) was “dose response inhibition” and the “dose response inhibition of GOAT activity in intact cells” value (GOAT) was “dose inhibition response”.

With `CCC(C)(O)/C=C/[C@H](NC(=O)OCc1ccccc1)C(=O)OC` (stereo partly shown) [BK1095] the “inhibition of GOAT activity (qualitative)” value (from here on “inhibition … (qualitative)”) (mouse GOAT) was “little inhibition”.

With `CCCCCCCC(C)(O)/C=C/[C@H](NC(=O)OCc1ccccc1)C(=O)NC(C)C` (stereo partly shown) [PH1176a] the “GOAT inhibitory activity/potency compared with BK1114” value (mouse GOAT) was “do not improve activity”.

With `CCCCCCCC(=O)CC[C@H](NC(=O)OCc1ccccc1)C(=O)OC` [PH1154a] the “GOAT inhibition in vitro compared with PH1147” value (mouse GOAT) was “comparably to PH1147” and the “GOAT inhibition at higher concentrations” value (mouse GOAT; concentrations higher than 100 μM, compared with PH1147) was “performed more poorly”.

`CCCCCCCC(O)/C=C/[C@H](NC(=O)C(F)(F)F)C(=O)OC` (stereo partly shown) [BK1112] was tested, and the “GOAT inhibitory activity compared with PH1147” value (mouse GOAT) was “not helpful”.

For `CCCCCCCC(O)(/C=C/[C@H](NC(=O)OCc1ccccc1)C(=O)OC)CCC` (stereo partly shown) [BK1165], the “GOAT inhibitory activity/potency compared with BK1114” value (mouse GOAT) was “without compromising activity”.

`CCCCCCCC(C)(O)/C=C/[C@H](NC(=O)C(C)(C)CO)C(=O)N[C@@H](Cc1ccccc1)C(=O)N[C@@H](CC(C)C)C(N)=O` (stereo partly shown) [BK1141] was tested, and the “inhibition … (qualitative)” value (mouse GOAT) was “retains some activity”.

For `CCCCCCCC(O)/C=C/[C@H](NC(=O)OCc1ccccc1)C(=O)OC` (stereo partly shown) [PH1147], the “inhibition of GOAT activity at high concentration” value (“inhibition … at high concentration” for short) (mouse GOAT) was “greatest inhibition” and the IC50 (mouse GOAT) was roughly 90 µM.

In the case of `CCCCCCCC(C)(O)/C=C/[C@H](NC(=O)C(C)(C)CO)C(=O)OC` (stereo partly shown) [BK1137], the “inhibition … (qualitative)” value (mouse GOAT) is reported as “essentially inactive”.

With `CCCCCCCC(O)CC[C@H](NC(=O)C(C)(C)CO)C(=O)OC` (stereo partly shown) [PH1150] the “inhibition … at high concentration” value (mouse GOAT) was “inhibited GOAT activity”.

`CCCCCCCC(O)CC[C@@H](CO)NC(=O)[C@H](C)NC(=O)CNC` (stereo partly shown) [PH1167] was tested, and the “GOAT inhibitory activity compared with PH1147” value (mouse GOAT) was “neither PH1159 nor PH1167 possessed activity comparable to PH1147”.

`CCCCCCCC(O)CC[C@H](NC(=O)CC(C)(C)O)C(=O)OC` (stereo partly shown) [PH1149] was tested, and the “inhibition … at high concentration” value (mouse GOAT) was “inhibited GOAT activity”.
